Here are results for two compounds from publication PMC6085350, “Small molecule inhibitors of RAS-effector protein interactions derived using an intracellular antibody fragment” (Nature Communications, 2018).

SMILES strings stand for the structures.

Broadly, the Kd is a measure of binding affinity in units of concentration.

For one assay, the system named is KRAS-GDP. Briefly: waterLOGSY NMR binding to GDP form. On the procedure: The waterLOGSY NMR method[35] was used to measure RAS ligand interaction. WaterLOGSY experiments were conducted at a ^1H frequency of 600 MHz using a Bruker Avance spectrometer equipped with a BBI probe. All experiments were conducted at 298 K, 3 mm diameter NMR tubes with a sample final volume of 200 µl was used in all experiments. Solutions were buffered using an H2O 10 mM PBS, 5 mM MgCl2 buffer corrected to pH 7.4. The sample preparation is exemplified as follows, the compound (10 µl of a […] solution in DMSO-d6) was added to an eppendorf before sequential addition of the H2O PBS buffer (163.6 µl), D2O (20 µl), and protein (6.4 µl, 311.8 µM). The resulting solution was spun to ensure full mixing and transferred to a 3 mm NMR tube before running the experiment. For a competition experiment using Y6-scFv or VH, the preparation was carried out in a similar manner; the compound (10 µl of a 10 mM solution in DMSO-d6) was added to an eppendorf before sequential addition of the H2O PBS buffer (146.4 µl), D2O (20 µl), protein (6.4 µl, 311.8 µM) and Y6-ScFv (17.2 µl, 116.6 µM) with a ratio of 5.5:1:1. The resulting solution was spun and transferred to a 3 mm NMR tube before the run. […]
Supplementary Figure 3: Abd-2 WaterLOGSY NMR with and without anti RAS-scFV Abd-2 was analyzed by waterLOGSY. […]

The target of another assay is T1, HRASG12V-GTPγS (Homo sapiens, UniProt P01112, G12V).
T1 construct: expression of HRAS (1-166) HRAS^G12V or KRAS^G12V cDNA cloned into the pGEX-2T vector; GST (N); made in house; host or cells: E. coli C41(DE3)
Briefly: waterLOGSY NMR titration for Kd. It counts as binding. How it is done: The waterLOGSY NMR method[35] was used to measure RAS ligand interaction. WaterLOGSY experiments were conducted at a ^1H frequency of 600 MHz using a Bruker Avance spectrometer equipped with a BBI probe. All experiments were conducted at 298 K, 3 mm diameter NMR tubes with a sample final volume of 200 µl was used in all experiments. Solutions were buffered using an H2O 10 mM PBS, 5 mM MgCl2 buffer corrected to pH 7.4. The sample preparation is exemplified as follows, the compound (10 µl of a […] solution in DMSO-d6) was added to an eppendorf before sequential addition of the H2O PBS buffer (163.6 µl), D2O (20 µl), and protein (6.4 µl, 311.8 µM). The resulting solution was spun to ensure full mixing and transferred to a 3 mm NMR tube before running the experiment. […]
NMR spectra from the Abd-2 titration ranging from 50 to 400μM compound. The dissociation constant of Abd-2 binding to HRASG12V-GTPγS was determined from the curve generated by plotting the reduction of the NMR signal from a selected peak (depicted in green) during the compound titration against the protein. […]

For a further assay, the target named is PI3KC2. Briefly: Kinase panel (KinaseProfiler), first PI3KC2 line. It counts as biochemical, human. As to conditions: PI3KC2 (first of two lines), 10μM. How it is done:
Experiments were performed by Eurofins Pharma Discovery Services. The KinaseProfiler™ assay protocol guide can be downloaded from their website: www.eurofins.com/discoveryservices. The guide contains information on the buffer conditions, substrate and reference inhibitor blank used for each kinase.
Supplementary Table 3. Assessment of potential interaction of Abd-7 with a human kinase
Kinase % kinase activity in
A panel of 14 Kinases (relevant to the RAS pathway) has been screened against Abd-7
(10μM) and the kinase activity was measured. […] of activity was observe for all
function of the selected and RAS relevant kinase proteins.

Turning to `O=C(NCC1COc2ccccc2O1)c1ccco1` (stereo not shown) [Abd-2], in the assay on KRAS-GDP, the “binding to KRAS-GDP (waterLOGSY)” value is “poor binding”. This compound also gave a ligand efficiency at HRASG12V-GTPγS of 0.26. For the same compound, on HRASG12V-GTPγS (waterLOGSY titration 50 to 400 μM compound, single experimental analysis, read-out: Kd (dissociation constant)), the Kd was 235 µM.
On to `COc1nc(-c2cccc3c2OCCO3)ccc1Nc1ccc(CN(C)C)cc1` [Abd-7], for which, at PI3KC2, the “% kinase activity in the presence of Abd-7” value stood at 102%.
